According to ChEMBL document CHEMBL3734671, “Design and synthesis of an in vivo-efficacious PIM3 kinase inhibitor as a candidate anti-pancreatic cancer agent” (Bioorg Med Chem Lett, 2015):
Values after ≈ are worked out from the molar mass of the structure shown. Active and inactive are the calls of the source. No cut-off for these calls is given here.

Columns and labels:
[1] = molecular target: Serine/threonine-protein kinase pim-3 (Homo sapiens, UniProt Q86V86); experiment: Inhibition of PIM3 (unknown origin) using FL-Peptide 1 (5-FAM-AKRRRLSSLRA-COOH) substrate incubated for 2 hrs by electrophoretic mobility shift assay
[2] = Growth inhibition of human PANC1 cells after 72 hrs by CCK-8 assay; format: functional, cell-based; settings: PANC-1, 72 h
[3] = Growth inhibition of human MIAPaCa2 cells at 10 uM after 72 hrs by CCK-8 assay; format: functional; settings: MIA PaCa-2, 72 h, read-out: GI
[4] = Growth inhibition of human L3.6PL cells after 72 hrs by CCK-8 assay; format: functional
[5] = Growth inhibition of human PCI66 cells at 10 uM after 72 hrs by CCK-8 assay; format: functional; settings: PCI66, 72 h, read-out: GI
[6] = Growth inhibition of human PCI66 cells after 72 hrs by CCK-8 assay; format: functional, cell-based; settings: PCI66, 72 h
[7] = Growth inhibition of human MIAPaCa2 cells after 72 hrs by CCK-8 assay; format: functional, cell-based; settings: MIA PaCa-2, 72 h
[8] = Growth inhibition of human PCI35 cells after 72 hrs by CCK-8 assay; format: functional, cell-based; settings: PCI35, 72 h
CYP1A2 = molecular target: T1, CYP1A2 (Homo sapiens, UniProt P05177); experiment: Inhibition of CYP1A2 (unknown origin) at 10 uM; format: ADME
T1 sequence (P05177 whole entry): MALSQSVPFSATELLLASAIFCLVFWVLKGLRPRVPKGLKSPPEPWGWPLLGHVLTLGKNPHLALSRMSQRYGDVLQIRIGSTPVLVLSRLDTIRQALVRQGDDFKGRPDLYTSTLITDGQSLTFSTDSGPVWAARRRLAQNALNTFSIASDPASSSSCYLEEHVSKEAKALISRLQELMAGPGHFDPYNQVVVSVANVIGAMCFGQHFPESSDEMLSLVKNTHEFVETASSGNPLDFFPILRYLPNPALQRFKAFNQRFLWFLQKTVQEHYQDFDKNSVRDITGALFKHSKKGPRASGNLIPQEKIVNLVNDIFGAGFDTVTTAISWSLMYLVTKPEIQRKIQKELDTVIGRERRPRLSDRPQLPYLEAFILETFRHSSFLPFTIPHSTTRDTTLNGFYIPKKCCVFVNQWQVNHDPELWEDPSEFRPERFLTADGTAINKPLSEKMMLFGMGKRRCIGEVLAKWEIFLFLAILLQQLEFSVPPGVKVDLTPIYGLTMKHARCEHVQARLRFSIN

hERG (KCNH2) = hERG (KCNH2) (Homo sapiens, UniProt Q12809); experiment: Inhibition of human ERG at 10 uM by patch-clamp method
CYP2D6 = CYP2D6 (Homo sapiens, UniProt P10635); experiment: Inhibition of CYP2D6 (unknown origin) at 10 uM; format: ADME
[9] = Aqueous solubility in PBS buffer solution at pH 7.4; format: physicochemical
CYP2C19 = CYP2C19 (Homo sapiens, UniProt P33261); experiment: Inhibition of CYP2C19 (unknown origin) at 10 uM; format: ADME
CYP2C9 = CYP2C9 (Homo sapiens, UniProt P11712); experiment: Inhibition of CYP2C9 (unknown origin) at 10 uM; format: ADME
CYP3A4 = CYP3A4 (Homo sapiens, UniProt P08684); experiment: Inhibition of CYP3A4 (unknown origin) at 10 uM; format: ADME
[10] = molecular target: Receptor-type tyrosine-protein kinase FLT3 (Homo sapiens) (UniProt P36888); experiment: Inhibition of FLT3 (unknown origin) at 200 nM by electrophoretic mobility shift assay
[11] = molecular target: Serine/threonine-protein kinase pim-2 (Homo sapiens, UniProt Q9P1W9); experiment: Inhibition of PIM2 (unknown origin) by electrophoretic mobility shift assay
Serine/threonine-protein kinase pim-2, sequence (Q9P1W9 whole entry): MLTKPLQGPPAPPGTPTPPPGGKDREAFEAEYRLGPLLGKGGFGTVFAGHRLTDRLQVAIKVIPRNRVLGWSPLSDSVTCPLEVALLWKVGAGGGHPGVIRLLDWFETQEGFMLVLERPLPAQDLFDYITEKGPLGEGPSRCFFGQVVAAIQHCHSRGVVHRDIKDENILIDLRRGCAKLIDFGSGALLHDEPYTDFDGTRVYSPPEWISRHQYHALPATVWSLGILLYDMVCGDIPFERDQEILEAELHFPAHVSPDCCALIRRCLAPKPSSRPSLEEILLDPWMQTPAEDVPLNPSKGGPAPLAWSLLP

CYP2C9, sequence (P11712 whole entry): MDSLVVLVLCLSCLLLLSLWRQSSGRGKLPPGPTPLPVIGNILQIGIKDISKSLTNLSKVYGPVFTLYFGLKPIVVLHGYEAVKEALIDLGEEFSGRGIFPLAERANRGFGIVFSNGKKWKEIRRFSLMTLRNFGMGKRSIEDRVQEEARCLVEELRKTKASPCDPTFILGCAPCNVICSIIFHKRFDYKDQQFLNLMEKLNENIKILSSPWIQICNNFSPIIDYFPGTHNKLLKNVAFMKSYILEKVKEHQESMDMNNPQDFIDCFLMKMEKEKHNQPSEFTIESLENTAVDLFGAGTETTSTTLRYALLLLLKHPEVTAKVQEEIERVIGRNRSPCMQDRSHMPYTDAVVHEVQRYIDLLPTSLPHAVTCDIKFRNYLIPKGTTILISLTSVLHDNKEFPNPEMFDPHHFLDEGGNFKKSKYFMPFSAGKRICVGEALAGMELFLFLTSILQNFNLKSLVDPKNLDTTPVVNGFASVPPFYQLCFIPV
CYP2D6, sequence (P10635 whole entry): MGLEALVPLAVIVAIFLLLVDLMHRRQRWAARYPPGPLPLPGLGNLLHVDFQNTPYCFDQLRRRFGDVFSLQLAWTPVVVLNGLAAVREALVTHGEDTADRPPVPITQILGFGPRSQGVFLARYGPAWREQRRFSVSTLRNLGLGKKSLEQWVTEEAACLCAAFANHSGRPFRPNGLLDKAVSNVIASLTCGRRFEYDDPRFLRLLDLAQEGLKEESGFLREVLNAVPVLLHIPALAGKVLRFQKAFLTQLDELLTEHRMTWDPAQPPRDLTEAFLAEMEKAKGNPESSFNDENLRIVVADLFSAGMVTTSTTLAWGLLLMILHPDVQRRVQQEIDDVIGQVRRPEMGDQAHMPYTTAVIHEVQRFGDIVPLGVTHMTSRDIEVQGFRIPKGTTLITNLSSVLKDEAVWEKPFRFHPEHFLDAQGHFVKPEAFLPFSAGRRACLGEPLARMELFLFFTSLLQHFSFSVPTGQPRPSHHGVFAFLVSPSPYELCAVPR
hERG (KCNH2), sequence (Q12809 whole entry): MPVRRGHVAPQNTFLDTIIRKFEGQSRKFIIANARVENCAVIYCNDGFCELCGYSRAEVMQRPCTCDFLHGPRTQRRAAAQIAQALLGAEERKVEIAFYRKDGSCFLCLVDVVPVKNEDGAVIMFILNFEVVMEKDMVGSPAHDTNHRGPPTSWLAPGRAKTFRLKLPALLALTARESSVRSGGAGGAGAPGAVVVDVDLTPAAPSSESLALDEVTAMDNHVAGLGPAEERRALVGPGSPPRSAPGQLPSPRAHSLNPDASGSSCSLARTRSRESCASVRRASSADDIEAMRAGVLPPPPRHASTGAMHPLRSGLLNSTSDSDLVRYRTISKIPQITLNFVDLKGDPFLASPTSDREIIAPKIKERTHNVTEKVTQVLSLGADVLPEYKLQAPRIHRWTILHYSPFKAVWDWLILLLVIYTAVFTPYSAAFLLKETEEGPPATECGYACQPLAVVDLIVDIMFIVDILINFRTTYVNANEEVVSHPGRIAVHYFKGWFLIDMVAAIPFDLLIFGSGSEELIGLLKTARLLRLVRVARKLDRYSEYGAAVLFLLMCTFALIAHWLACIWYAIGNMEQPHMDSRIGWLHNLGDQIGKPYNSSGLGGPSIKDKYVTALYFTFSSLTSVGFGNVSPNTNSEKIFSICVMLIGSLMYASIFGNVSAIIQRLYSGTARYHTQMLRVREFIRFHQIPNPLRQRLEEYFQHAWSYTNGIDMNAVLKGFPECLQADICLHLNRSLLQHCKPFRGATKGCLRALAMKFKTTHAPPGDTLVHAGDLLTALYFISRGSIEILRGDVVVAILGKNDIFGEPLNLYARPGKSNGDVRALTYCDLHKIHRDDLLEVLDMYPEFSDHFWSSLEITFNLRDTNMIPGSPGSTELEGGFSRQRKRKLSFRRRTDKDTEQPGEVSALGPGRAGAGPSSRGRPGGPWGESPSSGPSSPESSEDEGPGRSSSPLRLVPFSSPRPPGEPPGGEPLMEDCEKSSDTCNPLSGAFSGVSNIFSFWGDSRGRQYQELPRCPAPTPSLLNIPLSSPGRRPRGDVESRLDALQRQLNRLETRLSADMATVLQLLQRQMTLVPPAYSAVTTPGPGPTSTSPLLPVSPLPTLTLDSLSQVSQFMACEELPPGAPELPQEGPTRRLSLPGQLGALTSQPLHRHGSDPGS
CYP2C19, sequence (P33261 whole entry): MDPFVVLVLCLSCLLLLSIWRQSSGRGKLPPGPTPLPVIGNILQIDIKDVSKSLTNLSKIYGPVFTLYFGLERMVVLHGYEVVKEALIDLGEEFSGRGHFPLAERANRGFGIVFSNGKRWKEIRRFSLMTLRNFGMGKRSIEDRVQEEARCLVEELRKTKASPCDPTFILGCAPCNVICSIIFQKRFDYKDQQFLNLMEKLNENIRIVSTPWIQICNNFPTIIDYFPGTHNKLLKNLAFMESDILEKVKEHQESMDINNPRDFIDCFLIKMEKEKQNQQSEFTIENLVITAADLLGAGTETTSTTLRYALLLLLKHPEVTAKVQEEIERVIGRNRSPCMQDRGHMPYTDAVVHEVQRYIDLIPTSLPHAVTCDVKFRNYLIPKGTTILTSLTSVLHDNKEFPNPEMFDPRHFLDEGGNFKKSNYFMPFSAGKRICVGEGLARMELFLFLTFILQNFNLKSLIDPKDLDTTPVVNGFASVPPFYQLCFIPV
CYP3A4, sequence (P08684 whole entry): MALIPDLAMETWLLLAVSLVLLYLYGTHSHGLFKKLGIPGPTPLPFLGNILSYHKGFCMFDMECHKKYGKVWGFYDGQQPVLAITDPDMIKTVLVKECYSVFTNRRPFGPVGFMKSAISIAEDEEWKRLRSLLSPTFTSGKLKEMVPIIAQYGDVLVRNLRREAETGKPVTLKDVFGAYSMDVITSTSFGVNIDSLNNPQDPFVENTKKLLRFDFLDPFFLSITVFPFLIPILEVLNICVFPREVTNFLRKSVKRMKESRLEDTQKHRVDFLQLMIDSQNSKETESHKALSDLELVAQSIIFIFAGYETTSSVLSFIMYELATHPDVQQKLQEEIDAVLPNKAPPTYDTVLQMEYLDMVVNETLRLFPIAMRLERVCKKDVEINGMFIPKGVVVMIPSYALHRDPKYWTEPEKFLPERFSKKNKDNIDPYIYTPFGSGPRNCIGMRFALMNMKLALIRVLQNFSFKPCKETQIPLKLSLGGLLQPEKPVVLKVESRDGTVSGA
Receptor-type tyrosine-protein kinase FLT3 (Homo sapiens), sequence (P36888 whole entry): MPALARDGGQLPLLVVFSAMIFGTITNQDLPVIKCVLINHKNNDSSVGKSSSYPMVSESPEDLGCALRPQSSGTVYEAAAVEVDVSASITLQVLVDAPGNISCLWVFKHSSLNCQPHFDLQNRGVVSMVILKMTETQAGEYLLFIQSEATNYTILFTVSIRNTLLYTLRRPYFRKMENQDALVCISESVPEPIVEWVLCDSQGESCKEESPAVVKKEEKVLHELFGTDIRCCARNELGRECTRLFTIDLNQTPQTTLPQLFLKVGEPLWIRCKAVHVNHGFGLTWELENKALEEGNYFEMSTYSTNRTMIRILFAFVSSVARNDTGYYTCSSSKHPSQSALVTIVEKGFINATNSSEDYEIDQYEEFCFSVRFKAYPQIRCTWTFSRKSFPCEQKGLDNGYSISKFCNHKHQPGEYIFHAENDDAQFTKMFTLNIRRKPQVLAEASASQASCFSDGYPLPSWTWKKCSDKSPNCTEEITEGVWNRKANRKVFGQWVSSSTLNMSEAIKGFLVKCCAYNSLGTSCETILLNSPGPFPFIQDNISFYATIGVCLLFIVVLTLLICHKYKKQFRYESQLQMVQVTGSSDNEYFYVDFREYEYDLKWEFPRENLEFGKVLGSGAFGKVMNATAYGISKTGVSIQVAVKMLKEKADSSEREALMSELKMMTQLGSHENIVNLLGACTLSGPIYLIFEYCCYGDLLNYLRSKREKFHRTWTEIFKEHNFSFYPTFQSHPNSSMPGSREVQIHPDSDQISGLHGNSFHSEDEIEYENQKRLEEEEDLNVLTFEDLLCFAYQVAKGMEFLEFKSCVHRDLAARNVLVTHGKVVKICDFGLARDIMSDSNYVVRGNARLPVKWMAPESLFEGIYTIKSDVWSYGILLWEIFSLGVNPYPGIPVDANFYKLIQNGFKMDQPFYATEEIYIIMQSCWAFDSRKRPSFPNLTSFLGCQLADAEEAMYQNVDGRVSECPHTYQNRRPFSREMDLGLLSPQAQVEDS

| SMILES | IC50 [1] [µM] | IC50 [2] [µM] | further results |
| --- | --- | --- | --- |
| COc1ccc2c(c1CN1CCNCC1)O/C(=C\c1c[nH]c3cnccc13)C2=O | 0.044 | > 10 |  |
| C#Cc1cccc(Nc2ncnc3cc(OCCOC)c(OCCOC)cc23)c1 [ERLOTINIB] |  | 3.1 | inhibition of growth at 10 µM [3]: < 1%; IC50 [4]: 4 µM; inhibition of growth at 10 µM [5]: 12%; IC50 [6]: > 10 µM; IC50 [7]: > 10 µM; IC50 [8]: 7.7 µM |
| COc1ccc2c(c1CN1CCNCC1)O/C(=C\c1c[nH]c3cccnc13)C2=O | > 2 | > 10 |  |
| CC(c1c(OCCO)ccc2c1O/C(=C\c1n[nH]c3ncccc13)C2=O)N1CCNCC1 (centres undefined) | 0.0064 | > 10 |  |
| COc1ccc2c(c1CN1CCNCC1)O/C(=C\c1c[nH]c3ccncc13)C2=O | 0.13 | > 10 |  |
| COc1ccc2c(c1CN1CCNC[C@@H]1C)O/C(=C\c1n[nH]c3ncccc13)C2=O | 0.0011 | > 10 |  |
| COc1ccc2c(c1CN1CCNC[C@H]1C)O/C(=C\c1n[nH]c3ncccc13)C2=O | 0.018 | > 10 |  |
| COc1ccc2c(c1CN1CCNCC1)O/C(=C\c1c[nH]c3ncccc13)C2=O | 0.0013 | 5.2 |  |
| COc1ccc2c(c1CN1CCN[C@@H](C)C1)O/C(=C\c1n[nH]c3ncccc13)C2=O | 0.0008 | 6.9 |  |
| COCCOc1ccc2c(c1C(C)N1CCNCC1)O/C(=C\c1n[nH]c3ncccc13)C2=O (centres undefined) | 0.003 | 3.3 | inhibition at 10 µM (CYP1A2): < 1%; inhibition at 10 µM (hERG (KCNH2)): 16%; inhibition at 10 µM (CYP2D6): 83%; solubility [9]: 196 µM (≈ 88.1 µg/mL); inhibition at 10 µM (CYP2C19): < 1%; inhibition at 10 µM (CYP2C9): < 1%; inhibition at 10 µM (CYP3A4): < 1% |
| COc1ccc2c(c1CN1CCNCC1)O/C(=C\c1n[nH]c3ccccc13)C2=O | 0.025 | > 10 | IC50 [4]: > 10 µM; IC50 [6]: > 10 µM; IC50 [7]: > 10 µM; inhibition [10]: Active; solubility [9]: 187 µM (≈ 73 µg/mL); IC50 [11]: > 1 µM; inhibition at 10 µM (CYP2C9): < 1%; IC50 [8]: > 10 µM |
| COc1ccc2c(c1CN1CCN[C@H](C)C1)O/C(=C\c1n[nH]c3ncccc13)C2=O | 0.004 | 8.4 |  |
